{"source": "patent US12459957B2", "about": "“Therapeutic compounds and methods” (GENENTECH, INC., priority 2021, dated 2025)"}
{"system": "neutrophils (PMA-stimulated NETosis)", "assay": "Quantification of NETosis using SYTOX Green", "assay_type": "cell-based, human", "conditions": "Apocynin at 100 uM; NET-forming cells as percentage of total cells", "description": "(§1) Semi-automated analysis of both phase and fluorescence images of SYTOX Green-stained neutrophils used a MATLAB algorithm. Total cells were counted by scoring phase standard deviation and radial symmetry. NETosis was classified in cells by measuring the DNA area in the fluorescence image and comparing with a select internal training set for each experiment. Unstimulated cells and PMA-stimulated, pyocyanin-inhibited cells served as negative controls. PMA-stimulated cells served as a positive control. NET-forming cells are presented as a percentage of total cells.", "units": {"% NETosis": "%"}}
{"compound": "COc1cc(C(C)=O)ccc1O", "note": "[Apocynin, reference compound]", "% NETosis": 29.06}
{"system": "neutrophils (PMA-stimulated NETosis)", "assay": "Quantification of NETosis using SYTOX Green", "assay_type": "cell-based, human", "conditions": "Homo sapiens, Neutrophil; NETosis, SYTOX Green-stained neutrophils, PMA-stimulated", "description": "as §1", "units": {"IC50": "nM"}}
{"compound": "COc1cccc(-c2cc3n(n2)Cc2ccc(NC(C)=O)cc2OC3)c1", "note": "[Example 2, N-(2-(3-Methoxyphenyl)-4H,10H-benzo[f]pyrazolo[5,1-c][1,4]oxazepin-7-yl)acetamide]", "IC50": "900 ± 200"}
{"compound": "COc1ccc(-c2cc3n(n2)Cc2ccc(NC(C)=O)cc2OC3)cc1", "note": "[Example 3, N-(2-(4-Methoxyphenyl)-4H,10H-benzo[f]pyrazolo[5,1-c][1,4]oxazepin-7-yl)acetamide]", "IC50": "520 ± 60"}
{"compound": "CC#CCC(=O)Nc1cccc(-c2cc3n(n2)Cc2ccc(NC(C)=O)cc2OC3)c1", "note": "[Example 4, N-(3-(7-acetamido-4H,10H-benzo[f]pyrazolo[5,1-c][1,4]oxazepin-2-yl)phenyl)pent-3-ynamide]", "IC50": "800 ± 20"}
{"compound": "CC(=O)Nc1ccc2c(c1)OCc1cc(-c3cccc(C#CCCCO)c3)nn1C2", "note": "[Example 5, N-(2-(3-(5-hydroxypent-1-yn-1-yl)phenyl)-4H,10H-benzo[f]pyrazolo[5,1-c][1,4]oxazepin-7-yl)acetamide]", "IC50": "3000 ± 1000"}
{"system": "neutrophils (PMA-stimulated NETosis)", "assay": "Quantification of NETosis using SYTOX Green", "assay_type": "cell-based, human", "conditions": "compound at 5 uM; NET-forming cells as percentage of total cells; vehicle 79.66, untreated 14.54", "description": "as §1", "units": {"5 uM (% NETosis)": "%"}}
{"compound": "Cn1cc(-c2ccc3c(c2)OCc2cc(-c4ccccc4)nn2C3)cn1", "note": "[Example 11]", "5 uM (% NETosis)": 80.81}
{"compound": "N#CCn1cc(-c2ccc3c(c2)OCc2cc(-c4ccccc4)nn2C3)cn1", "note": "[Example 12, 2-(4-(2-phenyl-4H,10H-benzo[f]pyrazolo[5,1-c][1,4]oxazepin-7-yl)-1H-pyrazol-1-yl)acetonitrile]", "5 uM (% NETosis)": 81.41}
{"compound": "c1ccc(-c2cc3n(n2)Cc2ccc(-c4cnc5n4CCCC5)cc2OC3)cc1", "note": "[Example 13]", "5 uM (% NETosis)": 80.46}
{"compound": "c1ccc(-c2cc3n(n2)Cc2ccc(-c4cnn5cccnc45)cc2OC3)cc1", "note": "[Example 14]", "5 uM (% NETosis)": 83.04}
{"compound": "c1ccc(-c2cc3n(n2)Cc2ccc(-c4cnc5ncccn45)cc2OC3)cc1", "note": "[Example 15]", "5 uM (% NETosis)": 77.26}
{"compound": "c1ccc(-c2cc3n(n2)Cc2ccc(-c4cncs4)cc2OC3)cc1", "note": "[Example 16]", "5 uM (% NETosis)": 80.91}
{"compound": "c1ccc(-c2cc3n(n2)Cc2ccc(-c4cn[nH]c4)cc2OC3)cc1", "note": "[Example 17]", "5 uM (% NETosis)": 76.49}
{"compound": "Cn1cc(C#N)c(Nc2ccc3c(c2)OCc2cc(-c4ccccc4)nn2C3)n1", "note": "[Example 18]", "5 uM (% NETosis)": 79.81}
{"compound": "OCCn1cc(Nc2ccc3c(c2)OCc2cc(-c4ccccc4)nn2C3)cn1", "note": "[Example 20]", "5 uM (% NETosis)": 77.97}
{"compound": "c1ccc(-c2cc3n(n2)Cc2ccc(NC4CCCC4)cc2OC3)cc1", "note": "[Example 21, N-cyclopentyl-2-phenyl-4H,10H-benzo[f]pyrazolo[5,1-c][1,4]oxazepin-7-amine]", "5 uM (% NETosis)": 86.47}
{"compound": "Oc1cc(Nc2ccc3c(c2)OCc2cc(-c4ccccc4)nn2C3)[nH]n1", "note": "[Example 22]", "5 uM (% NETosis)": 79.55}
{"compound": "c1ccc(-c2cc3n(n2)Cc2ccc(NC4CCC4)cc2OC3)cc1", "note": "[Example 23]", "5 uM (% NETosis)": 86.22}
{"compound": "CCc1n[nH]c(Nc2ccc3c(c2)OCc2cc(-c4ccccc4)nn2C3)c1Cl", "note": "[Example 24]", "5 uM (% NETosis)": 81.55}
{"compound": "Cn1cc(Nc2ccc3c(c2)OCc2cc(-c4ccccc4)nn2C3)cn1", "note": "[Example 25]", "5 uM (% NETosis)": 78.63}
{"compound": "c1ccc(-c2cc3n(n2)Cc2ccc(NC4CC4)cc2OC3)cc1", "note": "[Example 26]", "5 uM (% NETosis)": 78.70}
{"compound": "Clc1cc(Nc2ccc3c(c2)OCc2cc(-c4ccccc4)nn2C3)[nH]n1", "note": "[Example 27]", "5 uM (% NETosis)": 54.56}
{"compound": "Clc1[nH]ncc1Nc1ccc2c(c1)OCc1cc(-c3ccccc3)nn1C2", "note": "[Example 28, N-(5-chloro-1H-pyrazol-4-yl)-2-phenyl-4H,10H-benzo[f]pyrazolo[5,1-c][1,4]oxazepin-7-amine]", "5 uM (% NETosis)": 44.49}
{"compound": "N#C[C@H]1C[C@H](Nc2ccc3c(c2)OCc2cc(-c4ccccc4)nn2C3)C1", "note": "[Example 29]", "5 uM (% NETosis)": 87.44}
{"compound": "c1ccc(-c2cc3n(n2)Cc2ccc(NC4COC4)cc2OC3)cc1", "note": "[Example 30]", "5 uM (% NETosis)": 84.70}
{"compound": "Cn1cc(Nc2ccc3c(c2)OCc2cc(-c4ccccc4)nn2C3)c(Cl)n1", "note": "[Example 31]", "5 uM (% NETosis)": 85.26}
{"compound": "Cn1nccc1Nc1ccc2c(c1)OCc1cc(-c3ccccc3)nn1C2", "note": "[Example 32]", "5 uM (% NETosis)": 76.40}
